We go through 32 molecules from patent publication US7897765B2, “Therapeutic compounds and uses thereof” (Elixir Pharmaceuticals, Inc., priority 2003, dated 2011).

For this test, the target named is GHS-R (Homo sapiens, UniProt Q92847). Description: cell based assay of GHS-R antagonist/agonist activity. Conditions: GHS-R antagonist Ki and/or agonist EC50 class. How it is done: Cell-Based Activity Assays. For example, the ability of the compound to modulate accumulation of a second messenger signaling component downstream of GHS-R can be evaluated. For example, inositol phosphates (IP), as a result of Gq signaling in a mammalian cell, e.g., a Cos-7 cells. Other tissue culture cells, Xenopus oocytes, and primary cells can also be used.
Chain of GHS-R (Q92847 whole entry, species assumed): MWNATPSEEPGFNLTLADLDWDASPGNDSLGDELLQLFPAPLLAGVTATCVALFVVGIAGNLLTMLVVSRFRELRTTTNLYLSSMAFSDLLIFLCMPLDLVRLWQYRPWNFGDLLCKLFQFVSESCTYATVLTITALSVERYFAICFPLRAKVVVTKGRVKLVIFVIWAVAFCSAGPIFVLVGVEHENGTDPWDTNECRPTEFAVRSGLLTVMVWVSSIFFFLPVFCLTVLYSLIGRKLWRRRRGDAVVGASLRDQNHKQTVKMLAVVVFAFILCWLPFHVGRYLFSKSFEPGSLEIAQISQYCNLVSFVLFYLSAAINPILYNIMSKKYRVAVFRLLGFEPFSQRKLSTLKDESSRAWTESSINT
Phosphatidylinositol turnover assay. One day after transfection COS-7 cells are incubated for 24 hours with 5 μCi of [^3H]-myo-inositol in 1 ml medium supplemented with 10% fetal calf serum, 2 mM glutamine and 0.01 mg/ml gentamicin per well. Cells are then washed twice in buffer, 20 mM HEPES, pH 7.4, supplemented with 140 mM NaCl, 5 mM KCl, 1 mM MgSO4, 1 mM CaCl2, mM glucose, 0.05% (w/v) bovine serum; and incubated in 0.5 ml buffer supplemented with 10 mM LiCl at 37° C. for 30 min. For some assays, it is also useful to incubate the cells with adenosine deaminase ADA (200 U/mg, Boehringer Mannheim, Germany) for 30 min in a concentration of 1 U/ml.
After incubation with the compound of interest for 45 min at 37° C., cells are extracted with 10% ice-cold perchloric acid and placed on ice for 30 min. The resulting supernatants are neutralized with KOH in HEPES buffer, and [^3H]-inositol phosphate is purified on Bio-Rad AG 1-X8 anion exchange resin as described. Assays can be run in duplicate, triplicate, etc.
Other second messenger assays. Another second messenger that can be evaluated is Ca^2+. Ca^2+ mobilization can be evaluated using a calcium sensitive detector, such as aequorin protein or a dye, e.g., FURA-2. In an exemplary assay, calcium mobilization is evaluated in a recombinant cell that expresses GHS-R and aequorin.
Gene expression assay. HEK293 cells (30 000 cells/well) seeded in 96-well plates are transiently transfected with a mixture of pFA2-CREB and pFR-Luc reporter plasmid (PathDetect™ CREB trans-Reporting System, Stratagene) and nucleic acid encoding GHS. One day after transfection, cells are treated with the compound of interest in an assay volume of 100 μl medium for 5 hrs. After treatment, cells are cultured in low serum (2.5%). After the incubation period, the assay is ended by washing the cells twice with PBS and adding 100 μl luciferase assay reagent (LucLite™, Packard Bioscience). Luminescence is measured (e.g., as relative light units (RLU)) using in a luminometer such as the TopCounter™ (Packard Bioscience) for 5 sec.
IC50 and EC50 values can be determined by nonlinear regression, e.g., using the Prism 3.0 software (GraphPad Software, San Diego).
Turning to `CC(C)(C)NC(=O)N[C@H](COCc1ccccc1)C(=O)N1CCC2(CC1)CN(S(C)(=O)=O)c1ccccc12` [Compound 17], the Activity entry was “C (C refers to a compound having antagonist activity of Ki>100 nM and <1500 nM in a cell based assay)”.
In the case of `CS(=O)(=O)N1CC2(CCN(C(=O)[C@@H](COCc3ccccc3)NC(=O)[C@@H]3C=CCN3)CC2)c2ccccc21` [Compound 18] it was “C (C refers to a compound having antagonist activity of Ki>100 nM and <1500 nM in a cell based assay)”; in that of `CC(C)N1CCC(C(=O)N[C@H](COCc2ccccc2)C(=O)N2CCC3(CC2)CN(S(C)(=O)=O)c2ccccc23)CC1` [Compound 19], “C (C refers to a compound having antagonist activity of Ki>100 nM and <1500 nM in a cell based assay)”.
With `CN(C)CC(=O)N[C@H](COCc1ccccc1)C(=O)N1CCC2(CC1)CN(S(C)(=O)=O)c1ccccc12` [Compound 20], the Activity result is “C (C refers to a compound having antagonist activity of Ki>100 nM and <1500 nM in a cell based assay)”.
The result for `CC(C)N(C)CCS(=O)(=O)N[C@H](COCc1ccccc1)C(=O)N1CCC2(CC1)CN(S(C)(=O)=O)c1ccccc12` [Compound 21] reads “C (C refers to a compound having antagonist activity of Ki>100 nM and <1500 nM in a cell based assay)”.
With `CN1CCC(CN(C)[C@H](COCc2ccccc2)C(=O)N2CCC3(CC2)CN(S(C)(=O)=O)c2ccccc23)CC1.Cl.Cl` [Compound 22], the Activity entry is “C (C refers to a compound having antagonist activity of Ki>100 nM and <1500 nM in a cell based assay)”.
In the case of `CS(=O)(=O)N1CC2(CCN(C(=O)[C@@H](COCc3ccccc3)NC(=O)C[C@@H]3CCCN3)CC2)c2ccccc21` [Compound 23] it was “C (C refers to a compound having antagonist activity of Ki>100 nM and <1500 nM in a cell based assay)”; in that of `CN1CCC[C@H]1C(=O)N[C@H](COCc1ccccc1)C(=O)N1CCC2(CC1)CN(S(C)(=O)=O)c1ccccc12` [Compound 24], “C (C refers to a compound having antagonist activity of Ki>100 nM and <1500 nM in a cell based assay)”.
The result for `CN(C)CC(=O)N[C@H](COCc1ccccc1)C(=O)N1CCC2(CC1)CN(S(=O)(=O)Cc1ccccc1)c1ccccc12` [Compound 26] reads “C (C refers to a compound having antagonist activity of Ki>100 nM and <1500 nM in a cell based assay)”.
As to `CCN1CCC(C(=O)N[C@H](COCc2ccccc2)C(=O)N2CCC3(CC2)CN(S(C)(=O)=O)c2ccccc23)CC1` [Compound 27], the Activity entry is “C (C refers to a compound having antagonist activity of Ki>100 nM and <1500 nM in a cell based assay)”.
For the molecule `CS(=O)(=O)N1CC2(CCN(C(=O)[C@@H](COCc3ccccc3)NS(=O)(=O)CCN3CCCC3)CC2)c2ccccc21.Cl` [Compound 28], the Activity entry is “C (C refers to a compound having antagonist activity of Ki>100 nM and <1500 nM in a cell based assay)”.
For the molecule `CN(C)CC(=O)N[C@H](COCc1ccccc1)C(=O)N1CCC2(C=Cc3ccccc32)CC1` [Compound 29], the Activity result is “C (C refers to a compound having antagonist activity of Ki>100 nM and <1500 nM in a cell based assay)”.
As for `CC(C)(C)OC(=O)N[C@H](COCc1ccccc1)C(=O)N1CCC2(C=Cc3ccccc32)CC1` [Compound 30], the Activity result was “C (C refers to a compound having antagonist activity of Ki>100 nM and <1500 nM in a cell based assay)”.
Take `COCC(=O)N[C@H](COCc1ccccc1)C(=O)N1CCC2(CC1)CN(S(C)(=O)=O)c1ccccc12` [Compound 31]: the Activity result is “C (C refers to a compound having antagonist activity of Ki>100 nM and <1500 nM in a cell based assay)”.
For the molecule `CN1CCC[C@@H]1C(=O)N[C@H](COCc1ccccc1)C(=O)N1CCC2(CC1)CN(S(C)(=O)=O)c1ccccc12` [Compound 32], the Activity entry is “C (C refers to a compound having antagonist activity of Ki>100 nM and <1500 nM in a cell based assay)”.
As to `COCCN1CCC(C(=O)N[C@H](COCc2ccccc2)C(=O)N2CCC3(CC2)CN(S(C)(=O)=O)c2ccccc23)CC1` [Compound 33], the Activity entry is “C (C refers to a compound having antagonist activity of Ki>100 nM and <1500 nM in a cell based assay)”.
As for `CC(=O)OCC(=O)N[C@H](COCc1ccccc1)C(=O)N1CCC2(CC1)CN(S(C)(=O)=O)c1ccccc12` [Compound 34], the Activity entry was “C (C refers to a compound having antagonist activity of Ki>100 nM and <1500 nM in a cell based assay)”.
In the case of `CCN(C)CCS(=O)(=O)N[C@H](COCc1ccccc1)C(=O)N1CCC2(CC1)CN(S(C)(=O)=O)c1ccccc12` [Compound 35] it was “C (C refers to a compound having antagonist activity of Ki>100 nM and <1500 nM in a cell based assay)”; in that of `CS(=O)(=O)N1CC2(CCN(C(=O)[C@@H](COCc3ccccc3)NC(=O)C3CNC3)CC2)c2ccccc21` [Compound 36], “C (C refers to a compound having antagonist activity of Ki>100 nM and <1500 nM in a cell based assay)”.
The result for `CS(=O)(=O)N1CC2(CCN(C(=O)[C@@H](COCc3ccccc3)NS(=O)(=O)CCN3CCCCC3)CC2)c2ccccc21.Cl` [Compound 37] reads “C (C refers to a compound having antagonist activity of Ki>100 nM and <1500 nM in a cell based assay)”; that for `CCCN1CCC(C(=O)N[C@H](COCc2ccccc2)C(=O)N2CCC3(CC2)CN(S(C)(=O)=O)c2ccccc23)CC1` [Compound 38], “C (C refers to a compound having antagonist activity of Ki>100 nM and <1500 nM in a cell based assay)”.
As to `CS(=O)(=O)N1CC2(CCN(C(=O)[C@@H](COCc3ccccc3)NC(=O)CN3CCC3)CC2)c2ccccc21` [Compound 39], the Activity entry was “C (C refers to a compound having antagonist activity of Ki>100 nM and <1500 nM in a cell based assay)”.
Turning to `CN(C)Cc1ccc(C(=O)N[C@H](COCc2ccccc2)C(=O)N2CCC3(CC2)CN(S(C)(=O)=O)c2ccccc23)cc1` [Compound 40], the Activity result is “C (C refers to a compound having antagonist activity of Ki>100 nM and <1500 nM in a cell based assay)”.
Consider `CS(=O)(=O)N1CC2(CCN(C(=O)[C@@H](COCc3ccccc3)NC(=O)NCCO)CC2)c2ccccc21` [Compound 41], for which the Activity entry was “C (C refers to a compound having antagonist activity of Ki>100 nM and <1500 nM in a cell based assay)”.
In the case of `CN1CCC(C(=O)N[C@@H](Cc2ccccc2)C(=O)N2CCC3(CC2)CN(S(C)(=O)=O)c2ccccc23)CC1` [Compound 42] it was “C (C refers to a compound having antagonist activity of Ki>100 nM and <1500 nM in a cell based assay)”; in that of `CC(C)CCN1CCC(C(=O)N[C@H](COCc2ccccc2)C(=O)N2CCC3(CC2)CN(S(C)(=O)=O)c2ccccc23)CC1` [Compound 43], “C (C refers to a compound having antagonist activity of Ki>100 nM and <1500 nM in a cell based assay)”.
The result for `CC(C)(C)C(=O)N[C@H](COCc1ccccc1)C(=O)N1CCC2(CC1)CN(S(C)(=O)=O)c1ccccc12` [Compound 44] reads “C (C refers to a compound having antagonist activity of Ki>100 nM and <1500 nM in a cell based assay)”.
As to `CN1CCC(C(=O)N[C@H](Cc2ccccc2)C(=O)N2CCC3(CC2)CN(S(C)(=O)=O)c2ccccc23)CC1` [Compound 45], the Activity entry was “C (C refers to a compound having antagonist activity of Ki>100 nM and <1500 nM in a cell based assay)”.
The result for `CN1CCN(CCS(=O)(=O)N[C@H](COCc2ccccc2)C(=O)N2CCC3(CC2)CN(S(C)(=O)=O)c2ccccc23)CC1` [Compound 46] reads “C (C refers to a compound having antagonist activity of Ki>100 nM and <1500 nM in a cell based assay)”; that for `CN(C)CC(=O)N[C@H](COCc1ccccc1)C(=O)N1CCC2(CC1)CN(S(=O)(=O)CC(F)(F)F)c1ccccc12` [Compound 47], “C (C refers to a compound having antagonist activity of Ki>100 nM and <1500 nM in a cell based assay)”; that for `CN1CC2(CCN(C(=O)[C@@H](COCc3ccccc3)NC(=O)OC(C)(C)C)CC2)c2ccccc21` [Compound 48], “C (C refers to a compound having antagonist activity of Ki>100 nM and <1500 nM in a cell based assay)”.
In the case of `CC(C)N1CC=C(C(=O)N[C@H](COCc2ccccc2)C(=O)N2CCC3(CC2)CN(S(C)(=O)=O)c2ccccc23)CC1.Cl` [Compound 49], the Activity entry was “C (C refers to a compound having antagonist activity of Ki>100 nM and <1500 nM in a cell based assay)”.
